Results from patent publication US10537100B2, “Substituted methylenedioxybenzyl compounds and their use as synergists” (Endura SPA, priority 2015, dated 2020).

Tests used:
[1] = test system: CYP6CY3 from Myzus persicae; test: Inhibition of recombinant oxidase enzyme (P450) CYP6CY3, MFC substrate; assay type: biochemical; settings: for inhibition activity compared with PBO: CYP6CY3, statement in text; for Myzus persicae CYP6CY3 percentage of activity remaining: recombinant enzyme 50 μL + 3 μL stock in acetone (Examples 1 and 2: 0.1 mM; PBO: 10 mM), 10 min incubation, MFC
Procedure: Ability of the synergists of the invention to inhibit oxidative enzymes (P450), a major mechanism conferring resistance to xenobiotics, was measured using recombinant enzymes corresponding to CYP6CY3 from Myzus persicae and CYP6CM1 from Bemisia tabaci.
The following synergists were tested in comparison with piperonyl butoxide (PBO): • 5-n-butyl-6-((prop-2-ynyloxy)methyl)benzo[d][1,3]dioxole the compound prepared in Example 2 • 5-n-hexyl-6-((prop-2-ynyloxy)methyl)benzo[d][1,3]dioxole the compound prepared in Example 1 CYP6CM1
For CYP6CY3, 7-ethoxycoumarin was not an appropriate substrate and MFC (7-methoxy-4-trifluoromethylcoumarin) was utilised instead. MFC was dissolved in dimethylsulfoxide to make a 20 mM stock solution and diluted by the addition of 0.1 M sodium phosphate buffer, pH 7.8, to give a concentration of 0.5 mM. Recombinant enzyme (10 μL) was added to separate wells of a microplate as before and diluted to 50 μL with 0.1 M phosphate buffer pH 7.6, followed by the addition of 80 μL of 0.5 mM MFC. The microplate was incubated for 5 min at 30° C., and the reaction was initiated by the addition of 10 μL of 9.6 mM NADPH in 0.1 M sodium phosphate, pH 7.8. Enzyme activity was read in a Spectramax Gemini EM for 60 min, with readings taken every 2 min, using an excitation wavelength of 410 nm and an emission wavelength of 510 nm, with a 495 nm cut-off filter. The rate (FU min^−1) was calculated by the integrated software, Softmax Pro v.5.4. as before.
For inhibition assays, stock solutions of the compounds of Example 1 and 2 (0.1 mM) were prepared in acetone. Dilute recombinant enzyme (50 μL) was mixed with 3 μL of stock solutions, with acetone only used as a control. After 10 min incubation at room temperature, 80 μL of 0.5 mM MFC was added, followed by 10 μL of 9.6 mM NADPH in 0.1 M sodium phosphate, pH 7.8. Enzyme activity remaining was then monitored as above. A PBO solution (10 mM) was prepared in the same way as a comparison.

[2] = molecular target: T1, Myzus persicae resistance associated esterase, FE4 (Myzus persicae, UniProt P35502); test: Inhibition of resistance associated esterase FE4, 4-nitrophenyl acetate substrate; assay type: biochemical; settings: for inhibition activity compared with PBO: FE4, statement in text; for remaining activity at 10000 µM (stock): purified FE4, 2.5 μL of 10 mM in acetone, 10 min incubation, 4-nitrophenyl acetate 0.8 mM, read-out: Myzus persicae esterases - percentage of the activity remaining FE4
T1 construct: would be utilized for the purified esterases from aphids; from tissue; host or cells: aphids (Myzus persicae)
T1 sequence (P35502 24-564): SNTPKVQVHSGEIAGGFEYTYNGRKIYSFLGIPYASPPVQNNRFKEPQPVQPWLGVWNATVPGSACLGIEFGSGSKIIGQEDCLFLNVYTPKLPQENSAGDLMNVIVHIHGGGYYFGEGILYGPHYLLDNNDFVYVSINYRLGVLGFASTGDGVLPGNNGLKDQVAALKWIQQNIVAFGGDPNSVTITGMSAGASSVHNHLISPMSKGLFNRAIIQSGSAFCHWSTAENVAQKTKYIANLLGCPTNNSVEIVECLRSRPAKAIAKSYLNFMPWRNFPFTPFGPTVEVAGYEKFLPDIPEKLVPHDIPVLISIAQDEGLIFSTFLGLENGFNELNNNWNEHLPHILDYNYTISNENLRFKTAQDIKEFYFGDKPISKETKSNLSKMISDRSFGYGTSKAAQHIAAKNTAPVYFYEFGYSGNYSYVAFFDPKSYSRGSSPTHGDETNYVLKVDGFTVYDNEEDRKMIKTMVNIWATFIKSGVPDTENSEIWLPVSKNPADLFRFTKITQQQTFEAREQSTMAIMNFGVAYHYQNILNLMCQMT
Procedure: It was envisaged, therefore, that the ‘esterase interference assay’ (Khot et al., 2008) would be utilized for the purified esterases from aphids. Various esterase substrates were assessed to find one suitable of monitoring inhibition in an insect homogenate. The Myzus persicae resistance associated esterase, FE4, was used.
Initially the esterase interference assay was carried out, as being the ‘absolute’ protocol for characterising interactions between the compounds of Example 1 and Example 2 and FE4. However, since this is a protracted method, and it would not be applicable for the B. tabaci esterases, a selection of products already reported in the literature were used to compare the interference assay and the use of a model substrate.
From the literature (Philippou et al., 2013) it is known that 1-naphthyl acetate is not suitable for this assay. Instead, 4-nitrophenyl acetate was used. A 10 mM pNA stock was prepared in acetone and added to 0.02 M phosphate buffer pH 7.0 (final concentration 2 mM). The comparison was made with 6 analogues of variable efficacy.
For the assay 10 μL of purified FE4 was diluted to a total volume of 50 μL by the addition of 0.02 M phosphate buffer, pH 7.0 in individual wells of a microplate (maxisorb, NUNC). To each well, 2.5 μL of 10 mM of the compound of Example 1 and of Example 2 in acetone was added and incubated for 10 mins, with acetone only used as a control. Following incubation, 100 μL of 0.02 phosphate buffer, pH 7.0 and 100 μL of 2 mM 4-nitrophenyl acetate was added (final volume in well 250 μL, final substrate concentration 0.8 mM). Enzyme activity was read at 405 nm in a Spectramax Tmax for 5 min, with readings taken every 5 s. The rate (mOD min^−1) was calculated by the integrated software, Softmax Pro v.5.4. A PBO solution (10 mM) was prepared in the same way as a comparison.

[3] = test system: Myzus persicae clone highly resistant to insecticide; test: Contact test on treated plant (pea seedling dip), synergist with neonicotinoid; assay type: in vivo; settings: for Efficacy of the tested compounds: synergist 1 g/L, mortality assessed at 48 hours, Abbott's formula
Procedure: Laboratory bred Myzus persicae clone highly resistant to insecticide, derived from a field collected population after control failure, mixed age apterous parthenogenetic females adults, were assayed for the test.
Four (4) different commercially available formulated insecticides were used and diluted as follow: • imidacloprid: 1000 mL of test solution was prepared diluting in water 20 μL of commercial formulation, containing 200 g/L of a.i., equivalent to 0.004 g of imidacloprid per liter of insecticidal solution; • thiacloprid: 1000 mL of test solution was prepared diluting in water 24 μL of commercial formulation containing 480 g/L of a.i, equivalent to 0.012 g of thiacloprid per liter of insecticidal solution;
The compounds of Example 1 and Example 2 were formulated in the form of emulsified concentrate (EC).
The following amount of the EC formulations were added to the above described insecticidal solution of insecticide to have a final concentration of synergist equal to 1 g/L:
20 mL of test formulations were used to wet by dipping for 5″ a small pea seedling (1-1.5 cm long). Seedlings were left at room temperature in a fume hood and allowed to dry for 15″. After drying 10-15 apterous parthenogenetic females were moved to the seedling and allowed to settle. Mortality produced by pyrethroids was assessed 24 hours later. Mortality produced by neonicotinoids was assessed 48 hours later.
Three replicates were executed each composed by 2 subreplicates (seedlings) and 60-90 specimens were used per test formulation.
In parallel with the test, the mortality of aphids in an untreated control replicate (seedlings dipped in water) was determined using the same conditions and methods.
The efficacy was calculated according the Abbott's formula: […]

[4] = Imidacloprid (0.004 g per liter)
[5] = thiacloprid (0.012 g per liter)

## C#CCOCc1cc2c(cc1CCCCCC)OCO2 [Compound of Example 1, 5-n-hexyl-6-((prop-2-ynyloxy)methyl)benzo[d][1,3]dioxole]
[1]
  inhibition activity compared with PBO: better than PBO
  Myzus persicae CYP6CY3 percentage of activity remaining: 8.51%
[2]
  inhibition activity compared with PBO: better than PBO
  remaining activity at 10000 µM (stock): 23.1%
[3]
  efficacy in combination with imidacloprid and thiacloprid: very good efficacy
[3]; [4]
  Efficacy of the tested compounds: 23.8
[3]; [5]
  Efficacy of the tested compounds: 23.8

## C#CCOCc1cc2c(cc1CCCC)OCO2 [Compound of Example 2, 5-n-butyl-6-((prop-2-ynyloxy)methyl)benzo[d][1,3]dioxole]
[1]
  inhibition activity compared with PBO: better than PBO
  Myzus persicae CYP6CY3 percentage of activity remaining: 4.04%
[2]
  inhibition activity compared with PBO: better than PBO
  remaining activity at 10000 µM (stock): 28.7%
[3]
  efficacy in combination with imidacloprid and thiacloprid: very good efficacy
[3]; [4]
  Efficacy of the tested compounds: −20.3
[3]; [5]
  Efficacy of the tested compounds: −20.3
